Assay results as given in ChEMBL document CHEMBL5316324, “Discovery, Characterization, and Engineering of LvIC, an α4/4-Conotoxin That Selectively Blocks Rat α6/α3β4 Nicotinic Acetylcholine Receptors” (J Med Chem, 2023).
Peptide text beside a SMILES is read from it.

Key:
[1] = biological target: Nicotinic acetylcholine receptor alpha6/alpha3/beta4 (Rattus norvegicus) (UniProt P04757+P12392+P43143); assay: Potency index, ratio of [T5A,P60]BuIA to test compound for rat alpha6/alpha3beta4 nAChR expressed in Xenopus Oocytes assessed as fold increase in presence of acetylcholine by Voltage-clamp recording; assay type: cell-based; settings: Oocyte
[2] = biological target: Neuronal acetylcholine receptor; alpha3/beta4 (Rattus norvegicus) (UniProt P04757+P12392); assay: Potency index, ratio of [T5A,P60]BuIA to test compound for rat alpha3beta4 nAChR expressed in Xenopus oocytes assessed as fold decrease in presence of acetylcholine by Voltage-clamp recording; assay type: cell-based; settings: Oocyte

## CC(C)[C@H](NC(=O)[C@@H]1CCCN1C(=O)[C@H](CC(N)=O)NC(=O)[C@H](C)NC(=O)[C@H](CS)NC(=O)[C@H](CS)NC(=O)[C@@H](N)CCCNC(=N)N)C(=O)N[C@@H](CS)C(=O)N[C@@H](CC(N)=O)C(=O)NCC(=O)N[C@@H](CCCCN)C(=O)N[C@@H](Cc1cnc[nH]1)C(=O)N[C@@H](CS)C(N)=O (H-RCCANPVCNGKHC-NH2)
[1]
  fold change (FC): 3
[2]
  fold change (FC): 10
